Measurements published in patent US12553882B2, “Use of PAK4 and CRTC1 for treatment or diagnosis of brain degenerative disease” (CHUNGBUK NATIONAL UNIVERSITY INDUSTRY-ACADEMIC COOPERATION …, priority 2017, dated 2026).

Legend:
TH-positive DA neurons = assay: PF-3758309 stereotaxic injection into the SN, analysis of TH-positive neurons and fibers; type: in vivo, rat; settings: PF-3758309 injected into the SN (substantia nigra)
Protocol: Mice were anesthetized with chloral hydrate (360 mg/kg, intraperitoneal [i.p.] injection) and then placed in a stereotaxic instrument (Kopf Instruments, Tujunga, CA, USA). The injection site coordinates in the right SN were 5.3 mm AP, 2.0 mm ML and 7.6 mm DV, from the bregma. Then, PF-3758309 (0.5 μg) was injected using a Hamilton syringe needle (33-gauge needle). In this case, the flow rate of the injection solution (2 ul) was allowed to be at 0.25 ul/min. After the injection, the syringe needle was maintained as it is for 5 more minutes to suppress the reflux of the solution. […]
Human brain tissue slices embedded with paraffin were deparaffinized with xylene. […] Samples were reacted with Alexa 488- or Alexa 594-conjugated secondary antibodies for fluorescence microscopic analysis. […] For Nissl-staining, SN tissue was fixed on a gelatin-coated slide and dried at room temperature for 1 hour, stained with 0.5% cresyl violet, dehydrated, covered with a cuff slip and analyzed using a bright field microscopy (Nikon).
The unbiased stereological analysis of the total number of TH+ neurons was performed using an optical fractionator method and Stereo Investigator software (MBF Bioscience, Williston, VT). The method is an assay which is not influenced by reference volume (SNpc) or size of counted elements (neurons). The total number of neurons was calculated by Optical Fractionator Equation. […]

rat PAK4 = assay: Knock-down of PAK4 by lentiviral shRNA; type: in vivo; settings: lentiviral rat PAK4 hCMV-TurboGFP shRNA
Text: Lentiviral rat PAK4 hCMV-TurboGFP shRNAs were purchased from Dharmacon and Open Biosystems. […] In this case, lentiviral shRNA control particles (#S-005000-01) were used as a control.
Protein extracts were obtained by conventional protein extraction methods, and immunoblots were visualized using HRP-conjugated secondary antibodies to IgG and chemiluminescent substrate (SuperSignal Ultra; Pierce). For quantitative analysis of protein levels, each band density of the immunoblots was quantitatively analyzed using the National Institutes of Health ImageJ software (National institutes of Health).
As a method for checking the action of PAK4 in Parkinson's disease, the present inventors injected a lent viral green fluorescent protein (GFP) small hairpin control (shCtrl) or lentiviral-GFP-shPAK4 construct into the right striatum of the rat brain to analyze the role of PAK4 in Parkinson's disease.

rat CRTC1 = assay: Knock-down of CRTC1 by lentiviral shRNA, 6-OHDA rat model; type: in vivo; settings: lentiviral rat CRTC1 hCMV-TurboGFP shRNA

Cc1nc(Nc2[nH]nc3c2CN(C(=O)N[C@H](CN(C)C)c2ccccc2)C3(C)C)c2sccc2n1 [PF-3758309]
TH-positive DA neurons (TH-positive DA neurons): decreased

SH-082018-01: lentiviral rat PAK4 shRNA, TTACGCAAGTCCATCTTCT, Dharmacon and Open Biosystems
knock-down of the expression of PAK4 (rat PAK4): effectively knocked down

SH-082018-02: lentiviral rat PAK4 shRNA, TGATCGAAGCCTGTGTGTA, Dharmacon and Open Biosystems
knock-down of the expression of PAK4 (rat PAK4): effectively knocked down

SH-111776-01: lentiviral rat CRTC1 shRNA, CACGATATACTCTGTCCAC
knock-down of the expression of CRTC1 (rat CRTC1): effectively knocked down

SH-111776-02: lentiviral rat CRTC1 shRNA, TCGCTAAATTTCCGCGGAT
knock-down of the expression of CRTC1 (rat CRTC1): effectively knocked down
